Measured values reported in US10052320B2, “Substituted quinoxalines as FGFR kinase inhibitors” (ASTEX THERAPEUTICS LIMITED, priority 2011, dated 2018).

Legend:
FGFR1 (h) = FGFR1 (h) (Homo sapiens, UniProt P11362); test: FGFR1 (enzymatic assay), TR-FRET; type: biochemical; conditions: read-out: FGFR 1 pIC50 (converted)
Procedure: In a final reaction volume of 30 μL, FGFR1 (h) (25 ng/ml) was incubated with 50 mM HEPES pH 7.5, 6 mM MnCl2, 1 mM DTT, 0.1 mM Na3VO4, 0.01% Triton-X-100, 500 nM Btn-Flt3 and 5 μM ATP in the presence of compound (1% DMSO final). […] Time-Resolved Fluorescence Resonance Energy Transfer (TR-FRET) signal (ex340 nm. Em 620 nm, em 655 nm) was measured afterwards and results are expressed in RFU (Relative Fluorescence Units).

[1] = target: T1, Ba/F3-Flt3-transfected cells (Homo sapiens, UniProt P36888, cells depend on it, form not given); test: Ba/F3-Flt3 (minus IL3) cellular proliferation assay, Alamar Blue; type: cell-based
T1 sequence (P36888 1-993): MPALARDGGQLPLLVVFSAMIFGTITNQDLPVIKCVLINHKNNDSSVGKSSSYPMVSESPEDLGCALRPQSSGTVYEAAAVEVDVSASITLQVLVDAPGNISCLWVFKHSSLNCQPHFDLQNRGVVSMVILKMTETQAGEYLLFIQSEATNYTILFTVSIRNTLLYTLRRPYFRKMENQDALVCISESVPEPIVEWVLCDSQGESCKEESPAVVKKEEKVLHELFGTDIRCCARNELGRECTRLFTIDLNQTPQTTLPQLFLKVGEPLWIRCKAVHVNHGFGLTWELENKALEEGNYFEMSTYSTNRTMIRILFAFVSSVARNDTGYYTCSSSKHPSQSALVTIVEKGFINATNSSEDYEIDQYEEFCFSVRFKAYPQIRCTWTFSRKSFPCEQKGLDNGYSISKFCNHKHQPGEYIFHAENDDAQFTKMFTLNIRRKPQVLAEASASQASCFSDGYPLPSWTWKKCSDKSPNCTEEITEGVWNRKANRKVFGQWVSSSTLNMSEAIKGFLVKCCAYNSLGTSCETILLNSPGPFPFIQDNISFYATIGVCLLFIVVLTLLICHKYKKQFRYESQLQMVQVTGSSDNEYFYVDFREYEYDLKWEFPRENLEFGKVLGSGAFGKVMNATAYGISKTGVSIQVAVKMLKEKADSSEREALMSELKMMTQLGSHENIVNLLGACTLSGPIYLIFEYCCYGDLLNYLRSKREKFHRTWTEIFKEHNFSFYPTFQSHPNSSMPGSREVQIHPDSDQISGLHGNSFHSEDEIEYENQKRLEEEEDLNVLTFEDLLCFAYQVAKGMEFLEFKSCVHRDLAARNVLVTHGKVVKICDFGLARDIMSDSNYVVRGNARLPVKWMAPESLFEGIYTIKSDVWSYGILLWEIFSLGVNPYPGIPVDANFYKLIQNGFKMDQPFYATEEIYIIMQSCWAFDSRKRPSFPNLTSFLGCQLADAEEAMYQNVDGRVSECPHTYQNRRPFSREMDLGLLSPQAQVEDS

[2] = target: Ba/F3-FGFR4-transfected cells (Homo sapiens, UniProt P22455); test: Ba/F3-FGFR4 cellular proliferation assay, Alamar Blue; type: cell-based
Summary of the method: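 Ba/F3 cells transfected with FGFR4, 20000 cells/well in phenol red-free RPMI-1640 with 10% FBS, were exposed to compound for 24 h at 37° C, 5% CO2. Alamar Blue (resazurin) was then added for 4 h, and fluorescence was read at ex 540/em 590 nm.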

KDR (h) (VEGFR2) = KDR (h) (VEGFR2) (Homo sapiens, UniProt P35968); test: KDR (VEGFR2) (enzymatic assay), TR-FRET; type: biochemical
Summary of the method: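 First, kinase (150 ng/ml), Btn-Flt3 (500 nM), ATP (3 μM) and compound (1% DMSO) react 120 min at RT in pH 7.5 HEPES/6 mM MnCl2. Next, EDTA with Eu-anti-P-Tyr and SA-XL-665 stops it for 60 min. Finally, TR-FRET is read as RFU.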

Chain of Ba/F3-FGFR4-transfected cells (P22455 whole entry, change not shown): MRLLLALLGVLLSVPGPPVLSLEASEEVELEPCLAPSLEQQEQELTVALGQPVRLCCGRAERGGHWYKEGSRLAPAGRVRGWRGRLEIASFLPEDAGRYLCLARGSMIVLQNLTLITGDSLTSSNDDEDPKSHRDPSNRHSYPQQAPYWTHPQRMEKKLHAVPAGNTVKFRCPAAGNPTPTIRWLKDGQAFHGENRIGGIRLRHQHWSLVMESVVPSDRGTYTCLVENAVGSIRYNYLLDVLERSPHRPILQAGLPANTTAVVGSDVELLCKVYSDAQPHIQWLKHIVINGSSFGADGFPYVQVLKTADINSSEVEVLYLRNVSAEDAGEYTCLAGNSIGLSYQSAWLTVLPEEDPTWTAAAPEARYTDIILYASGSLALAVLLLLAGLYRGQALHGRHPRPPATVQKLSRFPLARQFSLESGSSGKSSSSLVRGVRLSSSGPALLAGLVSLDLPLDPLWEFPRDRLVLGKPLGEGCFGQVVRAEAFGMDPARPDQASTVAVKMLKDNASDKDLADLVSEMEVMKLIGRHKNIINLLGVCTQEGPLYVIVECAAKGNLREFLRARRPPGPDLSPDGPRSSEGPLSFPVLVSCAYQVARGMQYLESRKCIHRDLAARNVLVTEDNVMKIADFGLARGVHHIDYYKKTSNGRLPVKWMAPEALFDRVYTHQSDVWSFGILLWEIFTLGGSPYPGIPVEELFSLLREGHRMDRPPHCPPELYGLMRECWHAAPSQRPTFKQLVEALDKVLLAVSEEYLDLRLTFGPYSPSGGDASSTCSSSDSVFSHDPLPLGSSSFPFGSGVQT
Chain of KDR (h) (VEGFR2) (P35968 20-1356): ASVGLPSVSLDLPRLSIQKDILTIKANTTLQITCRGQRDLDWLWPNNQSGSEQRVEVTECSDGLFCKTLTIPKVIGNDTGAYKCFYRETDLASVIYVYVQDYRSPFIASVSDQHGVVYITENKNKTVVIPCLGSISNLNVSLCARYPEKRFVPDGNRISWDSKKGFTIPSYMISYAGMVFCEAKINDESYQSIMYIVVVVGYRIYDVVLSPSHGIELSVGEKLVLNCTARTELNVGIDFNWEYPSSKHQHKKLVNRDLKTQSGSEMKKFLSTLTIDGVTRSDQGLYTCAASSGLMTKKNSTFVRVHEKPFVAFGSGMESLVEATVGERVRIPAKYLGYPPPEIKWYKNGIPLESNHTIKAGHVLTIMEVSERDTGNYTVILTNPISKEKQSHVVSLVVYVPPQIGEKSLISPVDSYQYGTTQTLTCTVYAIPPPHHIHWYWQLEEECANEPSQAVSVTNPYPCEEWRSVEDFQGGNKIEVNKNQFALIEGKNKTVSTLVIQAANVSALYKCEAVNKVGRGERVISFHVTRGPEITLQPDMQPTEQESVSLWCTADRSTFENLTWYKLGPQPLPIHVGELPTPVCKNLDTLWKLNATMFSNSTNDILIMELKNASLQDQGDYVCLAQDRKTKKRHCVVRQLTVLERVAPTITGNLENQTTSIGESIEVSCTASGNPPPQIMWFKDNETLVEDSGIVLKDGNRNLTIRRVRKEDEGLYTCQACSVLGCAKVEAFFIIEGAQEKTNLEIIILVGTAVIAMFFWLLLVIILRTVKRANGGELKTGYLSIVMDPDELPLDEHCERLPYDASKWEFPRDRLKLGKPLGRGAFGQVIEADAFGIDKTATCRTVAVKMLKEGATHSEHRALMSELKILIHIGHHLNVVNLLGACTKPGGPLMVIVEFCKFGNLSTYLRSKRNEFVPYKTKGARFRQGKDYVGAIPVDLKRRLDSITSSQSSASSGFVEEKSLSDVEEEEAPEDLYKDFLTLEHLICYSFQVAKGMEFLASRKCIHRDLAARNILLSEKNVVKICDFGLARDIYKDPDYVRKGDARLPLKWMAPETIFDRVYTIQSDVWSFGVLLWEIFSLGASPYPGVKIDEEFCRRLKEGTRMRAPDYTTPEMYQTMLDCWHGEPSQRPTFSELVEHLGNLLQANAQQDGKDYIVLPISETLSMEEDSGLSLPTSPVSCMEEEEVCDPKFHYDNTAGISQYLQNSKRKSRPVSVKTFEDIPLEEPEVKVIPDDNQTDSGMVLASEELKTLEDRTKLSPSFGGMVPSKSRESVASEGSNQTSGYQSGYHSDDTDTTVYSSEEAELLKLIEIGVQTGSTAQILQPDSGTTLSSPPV
Chain of FGFR1 (h) (P11362 22-822): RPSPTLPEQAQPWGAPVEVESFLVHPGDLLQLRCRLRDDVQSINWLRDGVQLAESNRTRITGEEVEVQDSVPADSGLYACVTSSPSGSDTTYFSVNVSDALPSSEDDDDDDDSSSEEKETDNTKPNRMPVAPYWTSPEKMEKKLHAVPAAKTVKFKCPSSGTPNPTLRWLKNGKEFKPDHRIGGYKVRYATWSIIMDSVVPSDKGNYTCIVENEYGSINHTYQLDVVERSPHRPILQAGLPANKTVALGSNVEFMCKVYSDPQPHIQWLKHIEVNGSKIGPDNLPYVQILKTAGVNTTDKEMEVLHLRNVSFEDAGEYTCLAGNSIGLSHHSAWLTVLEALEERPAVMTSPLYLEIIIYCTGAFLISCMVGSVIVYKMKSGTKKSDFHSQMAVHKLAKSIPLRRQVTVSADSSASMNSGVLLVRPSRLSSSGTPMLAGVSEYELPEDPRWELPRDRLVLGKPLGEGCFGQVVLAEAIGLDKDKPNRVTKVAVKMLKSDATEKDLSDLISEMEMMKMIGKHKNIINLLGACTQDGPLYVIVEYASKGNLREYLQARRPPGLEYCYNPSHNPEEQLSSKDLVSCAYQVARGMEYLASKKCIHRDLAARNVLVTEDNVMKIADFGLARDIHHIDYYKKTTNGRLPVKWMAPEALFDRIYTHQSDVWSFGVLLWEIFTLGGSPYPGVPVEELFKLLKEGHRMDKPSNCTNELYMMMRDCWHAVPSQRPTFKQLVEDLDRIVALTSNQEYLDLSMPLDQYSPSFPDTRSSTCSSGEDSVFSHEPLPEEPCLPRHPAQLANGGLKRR

SMILES	IC50 (FGFR1 (h)) [nM]	BAF3-FLT3 (MIN IL3) 384 well pIC50 ([1]; minus IL3)	BAF3-FGFR4 pIC50 [2]	IC50 (KDR (h) (VEGFR2)) [nM]	BAF3-FLT3 (MIN IL3) 96 well pIC50 ([1]; minus IL3)	BAF3-FLT3 (MIN IL3) 96 well pIC50 ([1]; minus IL3, 96 well)	BAF3-FLT3 (MIN IL3) 384 well pIC50 ([1]; minus IL3, 384 well)
COc1cc(OC)cc(N(CC2CC2)c2ccc3ncc(-n4cnc(CO)c4)nc3c2)c1 [Compound 105]	28.2	<5	5.53	741	–	–	–
COc1cc(OC)cc(N(CCNC(C)C)c2ccc3ncc(-c4ccccc4)nc3c2)c1 [Compound 121]	1.17	~5.34	6.4	49	–	–	–
COc1cc(OC)cc(N(CC2CC2)c2ccc3ncc(-n4cnc(C)c4)nc3c2)c1 [Compound 30]	51.3	<5	<5.35	501	5.06	–	–
COc1cc(OC)cc(N(CC2CC2)c2ccc3ncc(-c4ocnc4C)nc3c2)c1 [Compound 104]	389	<5	<5	> 1000	–	–	–
CNC(=O)c1cc(-c2cnc3ccc(N(CCNCC(F)(F)F)c4cc(OC)cc(OC)c4)cc3n2)ccn1 [Compound 113]	85.1	<5	5.5	> 1000	–	–	–
COCCCN(c1cc(OC)cc(OC)c1)c1ccc2ncc(-c3ccn(C)c3)nc2c1 [Compound 3]	7.76	5.07	6.4	126	–	–	–
CNC(=O)c1cc(-c2cnc3ccc(N(CCNC(C)C)c4cc(OC)cc(OC)c4)cc3n2)ccn1 [Compound 14]	6.17	5.02	6.8	490	–	–	–
CNC(=O)c1cc(-c2cnc3ccc(N(CCCNCC(F)(F)F)c4cc(OC)cc(OC)c4)cc3n2)ccn1 [Compound 122]	83.2	<5	~5.1	> 1000	–	–	–
COc1cc(OC)cc(N(CC2CC2)c2ccc3ncc(-c4ccn(CCO)c4)nc3c2)c1 [Compound 56]	–	<5	–	151	<5	–	–
COc1cc(OC)cc(N(CCO)c2ccc3ncc(-c4ccc(OC)nc4)nc3c2)c1 [Compound 111]	26.3	<5	5.9	741	–	–	–
COc1cc(OC)cc(N(CCCNCC(F)(F)F)c2ccc3ncc(-c4ccc(N(C)C(=O)OC(C)(C)C)nc4)nc3c2)c1 [Compound 127]	257	<5	<5	> 1000	–	–	–
COc1cc(OC)cc(N(CC(O)C(F)(F)F)c2ccc3ncc(-c4cccnc4)nc3c2)c1 (single isomer, unassigned) [Compound 53]	–	<5	–	363	–	–	–
COc1cc(OC)cc(N(CCO)c2ccc3ncc(-c4ccnc(C(=O)NCCCN)c4)nc3c2)c1 [Compound 123]	18.6	<5	5.2	575	–	–	–
COc1cc(OC)cc(N(CCNC(C)C)c2ccc3ncc(-c4cccnc4)nc3c2)c1 [Compound 10]	2.75	~5.01	6.6	295	–	–	–
COc1cc(OC)cc(N(CC2CC2)c2ccc3ncc(-n4cncn4)nc3c2)c1 [Compound 50]	759	<5	<5	> 1000	<5	–	–
COc1cc(OC)cc(N(CCCO)c2ccc3ncc(-c4ccc(C)nc4)nc3c2)c1 [Compound 115]	15.8	–	5.7	309	–	–	–
COc1cc(OC)cc(N(CC2CC2)c2ccc3ncc(-c4ccn(C)c4)nc3c2)c1 [Compound 73]	–	5.03	–	295	5.31	–	–

SMILES	IC50 (FGFR1 (h)) [nM]	BAF3-FLT3 (MIN IL3) 384 well pIC50 ([1]; minus IL3)	BAF3-FGFR4 pIC50 [2]	IC50 (KDR (h) (VEGFR2)) [nM]	BAF3-FLT3 (MIN IL3) 96 well pIC50 ([1]; minus IL3)	BAF3-FLT3 (MIN IL3) 96 well pIC50 ([1]; minus IL3, 96 well)	BAF3-FLT3 (MIN IL3) 384 well pIC50 ([1]; minus IL3, 384 well)
COc1cc(OC)cc(N(CC2CC2)c2ccc3ncc(C(=O)NCc4ccc(F)cc4)nc3c2)c1 [Compound 101]	> 1000	<5	<5	> 1000	<5	–	–
COc1cc(OC)cc(N(CC2CC2)c2ccc3ncc(-c4cn[nH]n4)nc3c2)c1 [Compound 69]	79.4	<5	<5	> 1000	<5	–	–
COc1cc(OC)cc(N(CCCO)c2ccc3ncc(-c4ccnc(C(=O)NCCCCN)c4)nc3c2)c1 [Compound 126]	19.5	<5	5.1	661	–	–	–
CNC(=O)c1cc(-c2cnc3ccc(N(CCN4CCCC4CO)c4cc(OC)cc(OC)c4)cc3n2)ccn1 (stereo not shown) [Compound 109]	16.2	<5	6.2	200	–	–	–
COc1cc(OC)cc(N(CC2CC2)c2ccc3ncc(-c4cnn(C)n4)nc3c2)c1 [Compound 70]	–	<5	–	> 1000	<5	–	–
COc1cc(OC)cc(N(CCCO)c2ccc3ncc(-c4cccnc4)nc3c2)c1 [Compound 112]	18.6	–	5.8	468	–	–	–
COc1cc(OC)cc(N(CC2CC2)c2ccc3ncc(-c4ccnn4C)nc3c2)c1 [Compound 18]	–	<5	–	> 10000	<5	–	–
COc1cc(OC)cc(N(CC2CC2)c2ccc3ncc(Nc4cnn(C)c4)nc3c2)c1 [Compound 61]	–	<5	–	> 1000	5.25	–	–
COc1cc(OC)cc(N(CCCO)c2ccc3ncc(-c4ccc(F)nc4)nc3c2)c1 [Compound 117]	20.4	–	5.5	912	–	–	–
COc1cc(OC)cc(N(CC2CC2)c2ccc3ncc(-c4cn(C)nn4)nc3c2)c1 [Compound 71]	–	<5	–	813	<5	–	–
COc1cc(OC)cc(N(CC(OC(C)=O)C(F)(F)F)c2ccc3ncc(-c4cccnc4)nc3c2)c1 (single isomer, unassigned) [Compound 75]	–	<5	–	–	–	–	–
COc1cc(OC)cc(N(CC2CC2)c2ccc3ncc(-c4cn(C)cn4)nc3c2)c1 [Compound 21]	–	<5	–	708	<5	–	–
COc1cc(OC)cc(N(CC2CC2)c2ccc3ncc(-c4ccc5c(ccn5C)c4)nc3c2)c1 [Compound 20]	–	–	–	> 10000	–	<5	<5
COc1cc(OC)cc(N(CCCO)c2ccc3ncc(-c4ccnc(N)c4)nc3c2)c1 [Compound 66]	3.09	–	6.3	75.9	–	–	–
COc1cc(OC)cc(N(CC2CC2)c2ccc3ncc(-c4cc[nH]c4)nc3c2)c1 [Compound 36]	–	<5	–	676	<5	–	–
COc1cc(OC)cc(N(CC(O)C(F)(F)F)c2ccc3ncc(-c4cccnc4)nc3c2)c1 (single isomer, unassigned) [Compound 54]	–	<5	–	794	–	–	–
COc1cc(OC)cc(N(CC(OC(C)=O)C(F)(F)F)c2ccc3ncc(-c4cccnc4)nc3c2)c1 (single isomer, unassigned) [Compound 45]	–	<5	–	> 1000	–	–	–
